In PubChem BioAssay AID1918993 (Molecular Pharmacology Branch, DTP, NCI, 2023):

Test system: 233499-124-R-J3-PDC complex spheroid growth
Assay: Anticancer human tumor 233499-124-R-J3-PDC patient-derived colon adenocarcinoma cell line growth inhibition [AhR]
Details: for IC50: curve of first compound; for viability, T/C: stronger effect = lower value
Procedure, shortened: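 Complex tumor spheroids co-cultured with HUVEC and human MSC stroma; AhR antagonists tested in combination with standard-of-care and investigational agents. Top concentration at or near clinical Cmax (else 10 microM), half-log dilutions; growth expressed as percent test/control.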

[1] = second compound 0.1 µM, first compound 0.0316 µM
[2] = second compound 0.1 µM, first compound 0.1 µM
[3] = second compound 0.1 µM, first compound 0.316 µM
[4] = second compound 0.1 µM, first compound 1 µM
[5] = second compound 0.1 µM, first compound 3.16 µM
[6] = second compound 0.1 µM, first compound 10 µM
[7] = second compound 0.316 µM, first compound 0.0316 µM
[8] = second compound 0.316 µM, first compound 0.1 µM
[9] = second compound 0.316 µM, first compound 0.316 µM
[10] = second compound 0.316 µM, first compound 1 µM
[11] = second compound 0.316 µM, first compound 3.16 µM
[12] = second compound 0.316 µM, first compound 10 µM
[13] = second compound 1 µM, first compound 0.0316 µM
[14] = second compound 1 µM, first compound 0.1 µM
[15] = second compound 1 µM, first compound 0.316 µM
[16] = second compound 1 µM, first compound 1 µM
[17] = second compound 1 µM, first compound 3.16 µM
[18] = second compound 1 µM, first compound 10 µM
[19] = second compound 3.16 µM, first compound 0.0316 µM
[20] = second compound 3.16 µM, first compound 0.1 µM
[21] = second compound 3.16 µM, first compound 0.316 µM
[22] = second compound 3.16 µM, first compound 1 µM
[23] = second compound 3.16 µM, first compound 3.16 µM
[24] = second compound 3.16 µM, first compound 10 µM
[25] = second compound 10 µM, first compound 0.0316 µM
[26] = second compound 10 µM, first compound 0.1 µM
[27] = second compound 10 µM, first compound 0.316 µM
[28] = second compound 10 µM, first compound 1 µM
[29] = second compound 10 µM, first compound 3.16 µM
[30] = second compound 10 µM, first compound 10 µM
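Further: spheroids exposed to agents for seven days before reading.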

Row | SMILES | IC50 (second compound 0.1 µM) | IC50 (second compound 0.316 µM) | IC50 (second compound 1 µM) | IC50 (second compound 3.16 µM) | IC50 (second compound 10 µM) | viability, T/C [1] | viability, T/C [2] | viability, T/C [3] | viability, T/C [4] | viability, T/C [5] | viability, T/C [6] | viability, T/C [7] | viability, T/C [8] | viability, T/C [9] | viability, T/C [10] | viability, T/C [11] | viability, T/C [12] | viability, T/C [13] | viability, T/C [14] | viability, T/C [15] | other results
1 | Nc1ccccc1NC(=O)c1ccc(CNC(=O)OCc2cccnc2)cc1 + Cc1cncc(-c2nc(NCCc3c[nH]c4ccccc34)c3ncn(C(C)C)c3n2)c1 | 4.26 µM | 2.61 µM | 1.78 µM | 1.49 µM | < 0.0316 µM | 89.4% | 99.9% | 92.6% | 106% | 65.9% | 4.68% | 93.8% | 90% | 80.7% | 109% | 41.3% | 2.94% | 80.4% | 84.8% | 71.9% | viability, T/C [16]: 93.9%; viability, T/C [17]: 17.1%; viability, T/C [18]: 1.34%; viability, T/C [19]: 74%; viability, T/C [20]: 77.7%; viability, T/C [21]: 78.6%; viability, T/C [22]: 74.6%; viability, T/C [23]: 4.12%; viability, T/C [24]: 0.26%; viability, T/C [25]: 7.14%; viability, T/C [26]: 7.87%; viability, T/C [27]: 7.4%; viability, T/C [28]: 1.13%; viability, T/C [29]: 0.78%; viability, T/C [30]: 0.29%
2 | O=C(C=Cc1cccc(S(=O)(=O)Nc2ccccc2)c1)NO + Cc1cncc(-c2nc(NCCc3c[nH]c4ccccc34)c3ncn(C(C)C)c3n2)c1 | 5.27 µM | 5.76 µM | 5.46 µM | 3.1 µM | < 0.0316 µM | 103% | 96.8% | 111% | 122% | 82% | 9.95% | 84.6% | 98.7% | 94.4% | 105% | 107% | 5.83% | 84.6% | 97.7% | 88.8% | viability, T/C [16]: 103%; viability, T/C [17]: 95.5%; viability, T/C [18]: 1.53%; viability, T/C [19]: 78.6%; viability, T/C [20]: 78.2%; viability, T/C [21]: 80.8%; viability, T/C [22]: 93.2%; viability, T/C [23]: 49.4%; viability, T/C [24]: 3.18%; viability, T/C [25]: 7.06%; viability, T/C [26]: 6.48%; viability, T/C [27]: 7.01%; viability, T/C [28]: 2.38%; viability, T/C [29]: 1.78%; viability, T/C [30]: 0.38%
3 | O=C(c1cc(Cc2n[nH]c(=O)c3ccccc23)ccc1F)N1CCN(C(=O)C2CC2)CC1 + Cc1cncc(-c2nc(NCCc3c[nH]c4ccccc34)c3ncn(C(C)C)c3n2)c1 | > 10 µM | > 10 µM | > 10 µM | > 10 µM | < 0.0316 µM | 115% | 105% | 100% | 102% | 98.6% | 105% | 106% | 99.3% | 96.3% | 95.5% | 103% | 92.3% | 87.5% | 97.2% | 93.9% | viability, T/C [16]: 71.5%; viability, T/C [17]: 87.5%; viability, T/C [18]: 86%; viability, T/C [19]: 74.8%; viability, T/C [20]: 86.4%; viability, T/C [21]: 76.3%; viability, T/C [22]: 83.6%; viability, T/C [23]: 85.9%; viability, T/C [24]: 90.1%; viability, T/C [25]: 5.45%; viability, T/C [26]: 6.91%; viability, T/C [27]: 19.4%; viability, T/C [28]: 16.2%; viability, T/C [29]: 8.78%; viability, T/C [30]: 19.1%
